These are literature values, as cited in patent publication US12251425B2, “Sustained-release lipid preformulation and pharmaceutical composition for sustained-release injection in form of lipid solution containing same” (IMDPHARM INC., priority 2019, dated 2025).

For this series the following is noted: 25° C.

For the substance sorbitan monooleate, the viscosity entry is “about 1000 mPa·s”.
